Literature values in patent US20240148758A1, “CONTROLLED RELEASE FORMULATIONS OF HIGHLY LIPOPHILIC PHYSIOLOGICALLY ACTIVE SUBSTANCES” (ADD Advanced Drug Delivery Technologies Ltd., priority 2019, published 2024).

Settings: decimal logarithm of the n-octanol/water partition coefficient

SMILES: C=C(C)[C@@H]1CCC(C)=C[C@H]1c1c(O)cc(CCCCC)cc1O [Canapure PH, 2-[1R-3-methyl-6R-(1-methylethenyl)-2-cyclohexen-1-yl]-5-pentyl-1,3-benzenediol]
- log P: about 6.1
